From ChEMBL document CHEMBL1255387, “Mechanism of hepatitis C virus RNA polymerase inhibition with dihydroxypyrimidines” (Antimicrob Agents Chemother, 2010) come the findings set out here.

Some results are limits rather than exact numbers.

As a reminder, the IC50 is the concentration that inhibits the measured activity by half.

Test [1] has as its target T1, RNA-directed RNA polymerase (Hepacivirus hominis, UniProt O39930). Nature of the test: Inhibition of NS5B-mediated RNA synthesis in Hepatitis C virus assessed as decrease in formation of full-length product after 45 mins.
The target in test [2] is RNA-directed RNA polymerase (Hepacivirus hominis, UniProt O39930, P156L). Nature of the test: Inhibition of NS5B P156L mutant-mediated RNA synthesis in Hepatitis C virus as decrease in formation of full-length product after 45 mins.
Sequence of RNA-directed RNA polymerase (Hepacivirus hominis, UniProt O39930, P156L) (O39930 entry or part of it P156L): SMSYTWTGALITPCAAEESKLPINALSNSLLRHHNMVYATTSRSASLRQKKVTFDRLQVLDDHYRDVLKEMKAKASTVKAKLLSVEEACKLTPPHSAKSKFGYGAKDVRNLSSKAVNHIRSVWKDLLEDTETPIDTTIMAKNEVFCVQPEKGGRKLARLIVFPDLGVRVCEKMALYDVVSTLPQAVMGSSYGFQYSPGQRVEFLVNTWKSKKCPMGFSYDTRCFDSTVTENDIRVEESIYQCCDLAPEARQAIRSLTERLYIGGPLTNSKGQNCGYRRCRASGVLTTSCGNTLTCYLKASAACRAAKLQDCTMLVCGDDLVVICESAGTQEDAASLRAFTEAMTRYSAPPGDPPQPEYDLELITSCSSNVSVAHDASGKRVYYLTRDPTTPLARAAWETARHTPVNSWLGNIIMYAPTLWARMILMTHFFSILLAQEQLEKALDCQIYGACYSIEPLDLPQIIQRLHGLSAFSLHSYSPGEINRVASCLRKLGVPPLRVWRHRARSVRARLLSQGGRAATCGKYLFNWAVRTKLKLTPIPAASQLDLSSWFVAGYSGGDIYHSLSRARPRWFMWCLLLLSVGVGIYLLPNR
For test [3], the target named is RNA-directed RNA polymerase (Hepacivirus hominis, UniProt O39930, G152E). The test can be described thus: Inhibition of NS5B G152E mutant-mediated RNA synthesis in Hepatitis C virus as decrease in formation of full-length product after 45 mins.
Sequence of RNA-directed RNA polymerase (Hepacivirus hominis, UniProt O39930, G152E) (O39930 entry or part of it G152E): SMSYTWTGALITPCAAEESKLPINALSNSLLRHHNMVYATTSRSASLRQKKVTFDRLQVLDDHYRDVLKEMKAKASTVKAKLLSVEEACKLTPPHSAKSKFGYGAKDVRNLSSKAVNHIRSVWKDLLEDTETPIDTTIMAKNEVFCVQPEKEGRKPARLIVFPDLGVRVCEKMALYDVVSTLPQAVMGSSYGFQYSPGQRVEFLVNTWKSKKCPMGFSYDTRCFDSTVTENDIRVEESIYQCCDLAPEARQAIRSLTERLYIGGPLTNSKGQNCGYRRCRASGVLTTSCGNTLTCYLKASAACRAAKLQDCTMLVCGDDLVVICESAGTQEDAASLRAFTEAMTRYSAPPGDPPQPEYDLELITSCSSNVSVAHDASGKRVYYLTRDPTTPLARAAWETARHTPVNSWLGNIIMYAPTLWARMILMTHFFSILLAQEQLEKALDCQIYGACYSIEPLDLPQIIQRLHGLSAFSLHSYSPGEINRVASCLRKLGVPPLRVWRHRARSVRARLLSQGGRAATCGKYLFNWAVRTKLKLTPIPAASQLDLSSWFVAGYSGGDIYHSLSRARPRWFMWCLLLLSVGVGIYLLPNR
The target of test [4] is T1, RNA-directed RNA polymerase. Nature of the test: Displacement of 0.1 uM UTP from NS5B in Hepatitis C virus.
The target is the same in test [5]. Nature of the test: Displacement of 1 uM UTP from NS5B in Hepatitis C virus.
Test [6] shares this target. Nature of the test: Displacement of 5 uM UTP from NS5B in Hepatitis C virus.
The target is the same in test [7]. The test can be described thus: Displacement of 50 uM PPi from NS5B in Hepatitis C virus.
Test [8] has the same target. Nature of the test: Displacement of 100 uM PPi from NS5B in Hepatitis C virus.
Test [9] has the same target. The test can be described thus: Displacement of 500 uM PPi from NS5B in Hepatitis C virus.

T1 sequence (O39930 whole entry): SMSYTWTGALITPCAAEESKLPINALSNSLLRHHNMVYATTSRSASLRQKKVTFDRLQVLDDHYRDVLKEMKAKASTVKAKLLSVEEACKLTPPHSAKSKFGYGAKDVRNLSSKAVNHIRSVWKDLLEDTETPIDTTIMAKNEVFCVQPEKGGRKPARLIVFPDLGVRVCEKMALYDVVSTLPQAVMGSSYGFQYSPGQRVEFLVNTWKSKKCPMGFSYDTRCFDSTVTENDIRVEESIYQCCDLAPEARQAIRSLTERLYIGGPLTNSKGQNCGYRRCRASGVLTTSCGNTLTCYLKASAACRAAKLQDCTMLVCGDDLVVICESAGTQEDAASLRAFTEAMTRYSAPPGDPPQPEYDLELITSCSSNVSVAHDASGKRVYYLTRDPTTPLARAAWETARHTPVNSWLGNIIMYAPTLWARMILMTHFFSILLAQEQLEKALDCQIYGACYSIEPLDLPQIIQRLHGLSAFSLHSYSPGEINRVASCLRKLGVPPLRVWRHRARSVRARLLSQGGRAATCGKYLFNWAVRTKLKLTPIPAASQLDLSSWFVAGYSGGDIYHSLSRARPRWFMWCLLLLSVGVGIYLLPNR

Regarding `O=C(Nc1ccsc1-c1nc(O)c(O)c(C(=O)O)n1)OCc1c(Cl)cccc1Cl`, the half-inhibitory concentration (IC50) in test [1] was 730 nM; in [2] it was 5390 nM; in test [3], 3780 nM; in test [4], 258 nM; in [5], more than 500 nM; in [6] it was more than 1000 nM. The IC50 in test [7] stood at 174 nM; in [8], 302 nM; in test [9], 882 nM.
